Data from patent US10440955B2, “Methods comprising a biocidal polyamine” (Curza Global, LLC, priority 2013, dated 2019).
In brackets after ≈: the same amount, converted by molar mass. Counter-ions that a name gives are not always drawn. Like-named read-outs stand apart in the source and are kept apart here.

Tests used:
MRSA = experiment: MIC, 96-well CAMHB, 10^5 to 10^2 CFU/mL in 24 hours; assay type: cell-based, Staphylococcus aureus; conditions: for MIC: Staphylococcus aureus, MRSA, read-out: MIC (MRSA)
Protocol: (§1) To determine the MIC of polyamine compounds, the protocol described herein was used.
In brief, a 0.5 McFarland of each bacterial isolate was made. A 0.5 McFarland is a measure of turbidity in a liquid sample that contains approximately 1×10^∧8 CFU/mL. The 0.5 McFarland standard was diluted in cation adjusted Mueller Hinton Broth (CAMHB), and 50 μL of broth were added to a well of a 96-well plate. In addition, 50 μL of CAMHB that contained a desired concentration of antimicrobial were also added to the well for a final volume of 100 μL and a final concentration of approximately 5×10^4 CFU/well (which equated to approximately 5×10^5 CFU/mL). Each well contained a desired amount of polyamine compound in order to experimentally determine the MIC. Each 96-well plate was incubated at 37° C. for 24 hours. The contents of each well were plated on tryptic soy agar (TSA). TSA plates were incubated for 37° C. for 24 hours after which the number of CFU were counted and used to calculate the CFU/mL that remained after exposure to varying concentrations of compound. This procedure was repeated n=8 times for each concentration of antimicrobial. […]

P. aeruginosa = experiment: as above; assay type: cell-based, Pseudomonas aeruginosa; conditions: for MIC: Pseudomonas aeruginosa
Protocol: as §1
In brief, a 0.5 McFarland of each bacterial isolate was made. A 0.5 McFarland is a measure of turbidity in a liquid sample that contains approximately 1×10^∧8 CFU/mL. The 0.5 McFarland standard was diluted in cation adjusted Mueller Hinton Broth (CAMHB), and 50 μL of broth were added to a well of a 96-well plate. In addition, 50 μL of CAMHB that contained a desired concentration of antimicrobial were also added to the well for a final volume of 100 μL and a final concentration of approximately 5×10^4 CFU/well (which equated to approximately 5×10^5 CFU/mL). Each well contained a desired amount of polyamine compound in order to experimentally determine the MIC. Each 96-well plate was incubated at 37° C. for 24 hours. The contents of each well were plated on tryptic soy agar (TSA). TSA plates were incubated for 37° C. for 24 hours after which the number of CFU were counted and used to calculate the CFU/mL that remained after exposure to varying concentrations of compound. This procedure was repeated n=8 times for each concentration of antimicrobial.

L-929 cells (ATCC CCL-1) = experiment: Minimal Essential Media (MEM) Elution cytotoxicity test; assay type: cell-based; conditions: Table 10A
Protocol: Summary: The Minimal Essential Media (MEM) Elution test was designed to determine the cytotoxicity of extractable substances. The test article was added to cell monolayers and incubated. The cell monolayers were examined and scored based on the degree of cellular destruction.
Acceptance Criteria: The United States Pharmacopeia & National Formulary (USP <87>) states that the test article meets the requirements, or receives a passing score (Pass) if the reactivity grade is not greater than grade 2 or a mild reactivity.
Acceptance criteria were based upon the negative and media controls receiving “0” reactivity grades and positive controls receiving a 3-4 reactivity grades (moderate to severe).
The cell monolayers were examined microscopically. The wells were scored as to the degree of discernable morphological cytotoxicity on a relative scale of 0 to 4:
The results from the three wells were averaged to give a final cytotoxicity score.
[…] This initial concentration was then diluted 1: 2, 1:4, 1:8, and 1:16. Multiple well cell culture plates were seeded with a verified quantity of industry standard L-929 cells (ATCC CCL-1) and incubated until approximately 80% confluent. The test articles and control extracts were added to the cell monolayers in triplicate. The cells were incubated at 37±1° C. with 5±1% CO2 for 48±3 hours.

[1] = read-out: MIC (P. aeruginosa), Table 5
[2] = Table 5, read-out: MIC (P. aeruginosa)

| Compound | MIC (MRSA; Table 5) [µM] | MIC (P. aeruginosa; [2]) [µM] | other results |
| --- | --- | --- | --- |
| NCCCNCc1cc(CNCCCN)cc(-c2ccccc2)c1 [CZ-77, N^1,N^1′-([1,1′-biphenyl]-3,5-diylbis(methylene))bis(propane-1,3-diamine), hydrochloride salt] |  |  | MIC (MRSA): < 50 µM; MIC (P. aeruginosa; [1]): < 50 µM |
| CC(C)(C)OC(=O)NCCCNCCCNCc1cc(CNCCCNCCCN)cc(CNCCCNCCCN)c1 [CZ-51, tert-butyl (3-((3-((3,5-bis(((3-((3-aminopropyl)amino)propyl)amino)methyl)-benzyl)amino)propyl)amino)propyl)carbamate] | < 50 | < 50 |  |
| NCCCNCCCNCc1cc(CNCCCNCCCN)cc(OCC2CCCCC2)c1 [CZ-101, N^1,N^1′-((5-(cyclohexylmethoxy)-1,3-phenylene)bis(methylene))bis(N^3-(3-aminopropyl)propane-1,3-diamine), hydrochloride salt] |  |  | MIC (MRSA): < 50 µM; MIC (P. aeruginosa; [1]): < 50 µM |
| NCCCCCCNCc1ccccc1 [CZ-9, N^1-benzylhexane-1,6-diamine, hydrochloride salt] |  |  | MIC (MRSA): > 100 µM |
| NCCCNCCCNCc1cccc(CNCCCNCCCN)c1 [CZ-25 (Bz)] | < 50 |  |  |
| NCCCNCCCNCc1cc(CNCCCNCCCN)cc(OC2CCCCC2)c1 [CZ-105] | < 50 | 50 to 100 (≈ 23.1 to 46.3 µg/mL) |  |
| CC(C)CNCCCNCCCNCc1cc(CNCCCNCCCNCC(C)C)cc(OCc2ccccc2)c1 [CZ-106, N^1,N^1′-((5-(benzyloxy)-1,3-phenylene)bis(methylene))bis(N^3-(3-(isobutylamino)propyl)propane-1,3-diamine)] | < 50 | 50 to 100 (≈ 29.1 to 58.3 µg/mL) |  |
| tri-tert-butyl-(((((benzene-1,3,5-triyltris(methylene))tris(azanediyl))tris-(propane-3,1-diyl))tris(azanediyl))tris(propane-3,1-diyl))tricarbamate, hydrochloride salt [CZ-54] |  |  | MIC (MRSA) (MRSA; Table 5): +++ (+++ = 50 μM > MIC. MIC results of “>n μM” or “<n μM” will also be designated as +++ if n <50.); MIC (P. aeruginosa) (P. aeruginosa; Table 5): +++ (+++ = 50 μM > MIC. MIC results of “>n μM” or “<n μM” will also be designated as +++ if n <50.) |
| CC(C)CNCCCNCCCNCc1cccc(CNCCCNCCCNCC(C)C)c1 [CZ-108, N^1,N^1′-(1,3-phenylenebis(methylene))bis(N^3-(3-(isobutylamino)propyl)propane-1,3-diamine)] | < 50 | < 50 |  |
| NCCCNCCCNCc1cc(CNCCCNCCCN)cc(OCc2ccccc2)c1 [CZ-95, N^1,N^1′-((5-(Benzyloxy)-1,3-phenylene)bis(methylene))bis(N^3-(3-aminopropyl)propane-1,3-diamine), hydrochloride salt] |  |  | MIC (MRSA): < 50 µM; MIC (P. aeruginosa; [1]): < 50 µM |
| NCCCCNCc1ccccc1 [CZ-3, N^1-benzylbutane-1,4-diaminium chloride] |  |  | MIC (P. aeruginosa; [1]): > 100 µM |
| CC(C)Oc1cc(CNCCCNCCCN)cc(CNCCCNCCCN)c1 [CZ-93, N^1,N^1′-((5-isopropoxy-1,3-phenylene)bis(methylene))bis(N^3-(3-aminopropyl)propane-1,3-diamine)] | < 50 | < 50 |  |
| NCCCNCCCNCc1cc(CO)cc(CNCCCNCCCN)c1 [CZ-53, (3,5-bis(((3-((3-aminopropyl)amino)propyl)amino)methyl)phenyl)-methanol, hydrochloride salt] |  |  | MIC (P. aeruginosa) (P. aeruginosa; Table 5): ++ to +++ |
| CN(C)CCCCCCCCCCCCN(C)Cc1ccccc1 [CZ-10, N^1-Benzyl-N^1,N^12,N^12-trimethyldodecane-1,12-diamine, hydrochloride salt] |  |  | MIC (MRSA): > 100 µM |
| CC(C)CNCCCNCCCNCc1cc(Br)cc(CNCCCNCCCNCC(C)C)c1 [CZ-109, N^1,N^1′-((5-bromo-1,3-phenylene)bis(methylene))bis(N^3-(3-(isobutylamino)propyl)propane-1,3-diamine)] | < 50 | < 50 |  |
| CC(C)Oc1ccc(-c2cc(CNCCCNCCCN)cc(CNCCCNCCCN)c2)cc1CNCCCNCCCN [CZ-66, N^1,N^1′,N^1″-((4′-isopropoxy-[1,1′-biphenyl]-3,3′,5-triyl)tris(methylene))-tris(N^3-(3-aminopropyl)propane-1,3-diamine), hydrochloride salt] |  |  | Results Pass/Fail (L-929 cells (ATCC CCL-1); 25 μg/mL): Fail (a numerical grade greater than 2 is considered a cytotoxic effect, or a failing score (Fail)); Results Pass/Fail (L-929 cells (ATCC CCL-1); dilution 1:2 of 25 μg/mL): Fail (a numerical grade greater than 2 is considered a cytotoxic effect, or a failing score (Fail)); Results Pass/Fail (L-929 cells (ATCC CCL-1); dilution 1:4 of 25 μg/mL): Pass (receives a passing score (Pass) if the reactivity grade is not greater than grade 2 or a mild reactivity); Results Pass/Fail (L-929 cells (ATCC CCL-1); dilution 1:8 of 25 μg/mL): Pass (receives a passing score (Pass) if the reactivity grade is not greater than grade 2 or a mild reactivity); Results Pass/Fail (L-929 cells (ATCC CCL-1); dilution 1:16 of 25 μg/mL): Pass (receives a passing score (Pass) if the reactivity grade is not greater than grade 2 or a mild reactivity) |
| CCCCCCNCCCNCCCNCc1cccc(CNCCCNCCCNCCCCCC)c1 [CZ-113, N^1,N^1′-(1,3-phenylenebis(methylene))bis(N^3-(3-(hexylamino)propyl)propane-1,3-diamine)] | < 50 | < 50 |  |
| CC(C)CNCCCNCCCNCc1cc(CNCCCNCCCNCC(C)C)cc(OC2CCCCC2)c1 [CZ-104, N^1,N^1′-((5-(cyclohexyloxy)-1,3-phenylene)bis(methylene))bis(N^3-(3-(isobutylamino)propyl)propane-1,3-diamine)] | < 50 |  | MIC (P. aeruginosa) (P. aeruginosa; Table 5): ++ to +++ |
| c1cc(CNCCCNCCCNCC2CCCCC2)cc(CNCCCNCCCNCC2CCCCC2)c1 [CZ-97, N^1,N^1′-(1,3-phenylenebis(methylene))bis(N^3-(3-((cyclohexylmethyl)-amino)propyl)propane-1,3-diamine)] | < 50 | < 50 |  |
| CC(C)CNCCCCCCCCCCCCNCc1cc(CNCCCCCCCCCCCCNCC(C)C)cc(-c2ccccc2)c1 [CZ-116, N^1,N^1′-([1,1′-biphenyl]-3,5-diylbis(methylene))bis(N^12-isobutyldodecane-1,12-diamine)] | < 50 | < 50 |  |
| CC(C)(C)OC(=O)NCCCNCCCNCc1cccc(CNCCCNCCCNC(=O)OC(C)(C)C)c1 [CZ-27, di-tert-butyl (((((1,3-phenylenebis(methylene))bis(azanediyl))bis(propane-3,1-diyl))bis(azanediyl))bis(propane-3,1-diyl))dicarbamate] | > 100 |  |  |
| NCCCNCCCNCc1cc(O)cc(CNCCCNCCCN)c1 [CZ-87, 3,5-bis(((3-((3-aminopropyl)amino)propyl)amino)methyl)phenol] | < 50 | < 50 |  |
| CCCCCCNCCCNCCCCNCc1cc(CNCCCCNCCCNCCCCCC)cc(-c2ccccc2)c1 [CZ-118, N^1,N^1′-([1,1′-biphenyl]-3,5-diylbis(methylene))bis(N^4-(3-(hexylamino)propyl)butane-1,4-diamine)] | < 50 | < 50 |  |
| NCCCCCCCCCCCCNCc1cc(CNCCCCCCCCCCCCN)cc(-c2ccccc2)c1 [CZ-115, N^1,N^1′-([1,1′-biphenyl]-3,5-diylbis(methylene))bis(dodecane-1,12-diamine)] | < 50 | < 50 |  |
| CCCCCCNCCCNCCCNCc1cc(CNCCCNCCCNCCCCCC)cc(-c2ccccc2)c1 [CZ-114, N^1,N^1′-([1,1′-biphenyl]-3,5-diylbis(methylene))bis(N^3-(3-(hexylamino)propyl)propane-1,3-diamine)] | < 50 | < 50 |  |
| NCCCNC(=O)c1cccc(C(=O)NCCCN)c1 [CZ-41] | > 100 |  |  |
| NCCCCCCCCCCCCNCc1ccccc1 [CZ-5, N^1-benzyldodecane-1,12-diamine, hydrochloride salt] |  |  | MIC (MRSA): > 100 µM |
